Results reported in patent US20250376691A1, “FLOTATION OF CULTURED EMBRYO EXPLANTS FOR IMPROVED PLANT REGENERATION EFFICIENCY” (Monsanto Technology LLC, priority 2022, published 2025).

Tested on: corn seed excised explants
Assay: Agrobacterium-mediated transformation and shoot/plant regeneration of corn seed excised explants (shoot frequency, normal shoot frequency, normal plant frequency)
Type: cell-based
Method: The shoot frequency was calculated as the number of inoculated explants producing shoots divided by the total number of inoculated explants.
The shoot frequency was calculated as the number of inoculated explants producing shoots divided by the total number of inoculated explants. […] The normal shoot frequency was calculated as the number of normal shoots divided by the total number of inoculated explants.

SMILES: O=C(O)COc1ccc(Cl)cc1Cl [2,4-D, 2,4-dichlorophenoxyacetic acid]
- average normal plant frequency when 2,4-D was present in co-culture medium (4 and 5 day co-culture combined): 0.73%
- average normal plant frequency (%), 2,4-D Present in Co-Culture (co-culture 4 days): 0.85%
- average normal plant frequency (%), 2,4-D Present in Co-Culture (co-culture 5 days): 0.5%
- Fold Increase in normal plant frequency without 2,4-D versus with 2,4-D, overall/average (co-culture medium, 17 experiments): 1.8
